Measurements as given in patent US9662327B2 (AGIOS PHARMACEUTICALS, INC, priority 2011, dated 2017).
Like-named read-outs stand apart in the source and are kept apart here.

Biological target: IDH1 R132H (Homo sapiens (Human), UniProt O75874, R132H)
Assay: Assays for IDH1 R132H Inhibitors (NADPH/aKG, resazurin detection)
Type: biochemical
Conditions: IDH1 R132H enzyme
In short: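 Mutant enzyme in 150 mM NaCl, 10 mM MgCl2, 20 mM Tris pH 7.5, 0.03% BSA; compound in DMSO added to substrate mix of 8 uM NADPH and 2 mM aKG. Reaction ran 50 min at room temperature, then resazurin detection mix (30 μM) added for 5 min at room temperature.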

[1] = Table 2, read-out: IDHR132H Activity

Chain of IDH1 R132H (O75874 whole entry R132H): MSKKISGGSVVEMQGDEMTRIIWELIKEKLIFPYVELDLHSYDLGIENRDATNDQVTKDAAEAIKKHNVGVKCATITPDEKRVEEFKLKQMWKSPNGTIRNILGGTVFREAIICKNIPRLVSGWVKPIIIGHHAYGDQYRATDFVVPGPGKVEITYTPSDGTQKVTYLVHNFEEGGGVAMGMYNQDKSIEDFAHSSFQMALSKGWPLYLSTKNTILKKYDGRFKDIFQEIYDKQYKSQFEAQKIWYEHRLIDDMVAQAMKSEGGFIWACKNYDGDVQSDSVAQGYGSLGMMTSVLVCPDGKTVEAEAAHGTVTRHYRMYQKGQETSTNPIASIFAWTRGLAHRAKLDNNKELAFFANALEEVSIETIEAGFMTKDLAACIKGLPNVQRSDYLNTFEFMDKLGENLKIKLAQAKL

| IC50 [1] | IC50 (Table 3, read-out: R132H IC50) | Structure (SMILES) |
| --- | --- | --- |
| – | 500 to 1000 nM | CC(C)[C@@H]1CN(c2nc(C3CC3)c3c(c2C#N)CC(C)(C)OC3)CCN1C(=O)CCc1ccco1 [Compound 447, (R)-8-cyclopropyl-6-(4-(3-(furan-2-yl)propanoyl)-3-isopropylpiperazin-1-yl)-3,3-dimethyl-3,4-dihydro-1H-pyrano[3,4-c]pyridine-5-carbonitrile] |
| 500 to 1000 nM | – | COC(=O)C1CN(c2nc(C(C)C)c3c(c2C#N)CC(C)(C)OC3)CCN1C(=O)c1ccoc1 (centres unmarked) [Compound 393, methyl 4-(5-cyano-8-isopropyl-3,3-dimethyl-3,4-dihydro-1H-pyrano[3,4-c]pyridin-6-yl)-1-(furan-3-carbonyl)piperazine-2-carboxylate] |
| 1000 to 10000 nM | – | CC(C)[C@@H]1CN(c2nc(C3CC3)c3c(c2C#N)CC(C)(C)OC3)CCN1C(=O)Cn1ccnn1 [Compound 408, (R)-6-(4-(2-(1H-1,2,3-triazol-1-yl)acetyl)-3-isopropylpiperazin-1-yl)-8-cyclopropyl-3,3-dimethyl-3,4-dihydro-1H-pyrano[3,4-c]pyridine-5-carbonitrile] |
| 500 to 1000 nM | – | CC(=O)N1CCN(c2nc(C3CC3)c3c(c2C#N)CC(C)(C)OC3)C[C@H]1C(C)C [Compound 352] |
| – | 500 to 1000 nM | COCCC(=O)N1CCN(c2nc(C3CC3)c3c(c2C#N)CC(C)(C)OC3)CC1C(F)F (centres unmarked) [Compound 464] |
| 1000 to 10000 nM | – | CC(C)[C@@H]1CN(c2nc(C3(C)CC3)c3c(c2C#N)CC(C)(C)OC3)CCN1C(=O)c1ccoc1 [Compound 386] |
| < 500 nM | – | COC(=O)CCC(=O)N1CCN(c2nc(C3CC3)c3c(c2C#N)CC(C)(C)OC3)C[C@H]1C(C)C [Compound 412, (R)-methyl 4-(4-(5-cyano-8-cyclopropyl-3,3-dimethyl-3,4-dihydro-1H-pyrano[3,4-c]pyridin-6-yl)-2-isopropylpiperazin-1-yl)-4-oxobutanoate] |
| 500 to 1000 nM | – | COC(=O)C1CN(c2nc(C3CC3)c3c(c2C#N)CC(C)(C)OC3)CCN1C(=O)c1ccoc1 (centres unmarked) [Compound 387] |
| – | 500 to 1000 nM | CC(C)[C@@H]1CN(c2nc(C3CC3)c3c(c2C#N)CC(C)(C)OC3)CCN1C(=O)C[S+](C)[O-] (stereo partly drawn) [Compound 453, 8-Cyclopropyl-6-((3R)-3-isopropyl-4-(2-(methylsulfinyl)acetyl)piperazin-1-yl)-3,3-dimethyl-3,4-dihydro-1H-pyrano[3,4-c]pyridine-5-carbonitrile] |
| 1000 to 10000 nM | – | CCCNC(=O)N1CCN(c2nc(C3CCCCC3)c3c(c2C#N)CCOC3)C[C@H]1C [Compound 378, (R)-4-(5-cyano-8-cyclohexyl-3,4-dihydro-1H-pyrano[3,4-c]pyridin-6-yl)-2-methyl-N-propylpiperazine-1-carboxamide] |

Further lines, the molecule ahead of its results:

| Structure (SMILES) | IC50 [1] | IC50 (Table 3, read-out: R132H IC50) |
| --- | --- | --- |
| Cc1ccccc1NC(=O)N1CCN(c2nc(C3CCCCC3)c3c(c2C#N)CCOC3)C[C@H]1C [Compound 279, (R)-4-(5-cyano-8-cyclohexyl-3,4-dihydro-1H-pyrano[3,4-c]pyridin-6-yl)-2-methyl-N-o-tolylpiperazine-1-carboxamide] | 1000 to 10000 nM | – |
| CC(C)c1nc(N2CC(C)N(C(=O)NC3CCCCC3)C(C)C2)c(C#N)c2c1COCC2 (centres unmarked) [Compound 108, 4-(5-cyano-8-isopropyl-3,4-dihydro-1H-pyrano[3,4-c]pyridin-6-yl)-N-cyclohexyl-2,6-dimethylpiperazine-1-carboxamide] | 1000 to 10000 nM | – |
| CC(C)[C@@H]1CN(c2nc(C3CC3)c3c(c2C#N)CC(C)(C)OC3)CCN1S(C)(=O)=O [Compound 323, (R)-8-cyclopropyl-6-(3-isopropyl-4-(methylsulfonyl)piperazin-1-yl)-3,3-dimethyl-3,4-dihydro-1H-pyrano[3,4-c]pyridine-5-carbonitrile] | 1000 to 10000 nM | – |
| CCOC(=O)C1CN(c2nc(C3CCCCC3)c3c(c2C#N)CCOC3)CCN1C(=O)CCSC (centres unmarked) [Compound 313, ethyl 4-(5-cyano-8-cyclohexyl-3,4-dihydro-1H-pyrano[3,4-c]pyridin-6-yl)-1-(3-(methylthio)-propanoyl)piperazine-2-carboxylate] | 1000 to 10000 nM | – |
| N#Cc1c(N2CCN(C(=O)c3ccc4[nH]ccc4c3)CC2)nc(C2CCCCC2)c2c1CCOC2 [Compound 122, 6-(4-(1H-indole-5-carbonyl)piperazin-1-yl)-8-cyclohexyl-3,4-dihydro-1H-pyrano[3,4-c]pyridine-5-carbonitrile] | 1000 to 10000 nM | – |
| CC1CN(c2nc(C3CCCCC3)c3c(c2C#N)CCOC3)CCN1C(=O)c1ccco1 (centres unmarked) [Compound 132, 8-cyclohexyl-6-(4-(furan-2-carbonyl)-3-methylpiperazin-1-yl)-3,4-dihydro-1H-pyrano[3,4-c]pyridine-5-carbonitrile] | 1000 to 10000 nM | – |
| CC(C)c1nc(N2C[C@@H](C)N(C(=O)NC3CCCCC3)[C@@H](C)C2)c(C#N)c2c1CCCC2 [Compound 109, (2S,6R)-4-(4-cyano-1-isopropyl-5,6,7,8-tetrahydroisoquinolin-3-yl)-N-cyclohexyl-2,6-dimethylpiperazine-1-carboxamide] | 1000 to 10000 nM | – |
| CCC1CN(c2nc(C3CCCCC3)c3c(c2C#N)CCOC3)CCN1C(=O)c1ccco1 (centres unmarked) [Compound 174, 8-cyclohexyl-6-(3-ethyl-4-(furan-2-carbonyl)piperazin-1-yl)-3,4-dihydro-1H-pyrano[3,4-c]pyridine-5-carbonitrile] | 1000 to 10000 nM | – |
| CC(C)c1nc(N2CCN(C(=O)Cc3ccccn3)[C@H](C)C2)c(C#N)c2c1COC(C)(C)C2 [Compound 218, (R)-8-isopropyl-3,3-dimethyl-6-(3-methyl-4-(2-(pyridin-2-yl)acetyl)piperazin-1-yl)-3,4-dihydro-1H-pyrano[3,4-c]pyridine-5-carbonitrile] | 1000 to 10000 nM | – |
| Cc1ncoc1C(=O)N1CCN(c2nc(C(C)C)c3c(c2C#N)CC(C)(C)OC3)C[C@H]1C(C)C [Compound 213, (R)-8-isopropyl-6-(3-isopropyl-4-(4-methyloxazole-5-carbonyl)piperazin-1-yl)-3,3-dimethyl-3,4-dihydro-1H-pyrano[3,4-c]pyridine-5-carbonitrile] | 1000 to 10000 nM | – |
| C[C@@H]1CN(c2nc(C3CCCCC3)c3c(c2C#N)CCOC3)CCN1C(=O)c1csc2ccccc12 [Compound 243, (R)-6-(4-(benzo[b]thiophene-3-carbonyl)-3-methylpiperazin-1-yl)-8-cyclohexyl-3,4-dihydro-1H-pyrano[3,4-c]pyridine-5-carbonitrile] | 1000 to 10000 nM | – |
| Cc1nc2ccccn2c1C(=O)N1CCN(c2nc(C3CC3)c3c(c2C#N)CC(C)(C)OC3)C[C@H]1C(C)C [Compound 229] | 1000 to 10000 nM | – |
| N#Cc1c(N2CCN(C(=O)C3CC3)CC2)nc(C2CCCCC2)c2c1CCOC2 [Compound 141, 8-cyclohexyl-6-(4-(cyclopropanecarbonyl)piperazin-1-yl)-3,4-dihydro-1H-pyrano[3,4-c]pyridine-5-carbonitrile] | 1000 to 10000 nM | – |
| Cc1ccoc1C(=O)N1CCN(c2nc(C3CCCCC3)c3c(c2C#N)CCOC3)C[C@H]1C [Compound 186, (R)-8-cyclohexyl-6-(3-methyl-4-(3-methylfuran-2-carbonyl)piperazin-1-yl)-3,4-dihydro-1H-pyrano[3,4-c]pyridine-5-carbonitrile] | 1000 to 10000 nM | – |
| CC1CN(c2nc(C3CC3)c3c(c2C#N)CC(C)(C)OC3)CCN1C(=O)c1ccoc1 (centres unmarked) [Compound 136] | 1000 to 10000 nM | – |
| COCCC(=O)N1CCN(c2nc(C3CCCCC3)c3c(c2C#N)CC(C)(C)OC3)C[C@H]1C [Compound 312, (R)-8-cyclohexyl-6-(4-(3-methoxypropanoyl)-3-methylpiperazin-1-yl)-3,3-dimethyl-3,4-dihydro-1H-pyrano[3,4-c]pyridine-5-carbonitrile] | 1000 to 10000 nM | – |
